Experiments:
Magnaporthe grisea = assay: whole plant or invertebrate; assay type: in vivo; conditions: for Test A control value class: class of control value
Alternaia brassicicola = assay: Test Example C: Alternaria sooty spot on cabbage; assay type: in vivo
Text: Seeds of a test plant (cabbage variety: Shikidori) were planted and cultivated until the cotyledons extended.
<Control Value> Control value=100{1−(n/3)}

Puccinia recondita = assay: Test Example E: Brown rust on wheat; assay type: in vivo
Phytophthora infestans = assay: whole plant or invertebrate; assay type: in vivo; conditions: for Test F control value class: class of control value
Botrytis cinerea = assay: Test Example B: Gray mold on tomato; conditions: for Test B control value class: class of control value
Plasmopara viticola = assay: Test Example G: Downy mildew on vine; conditions: for Test G control value: 7 to 10 days after inoculation; for Test G control value class: Downy mildew on vine (Neomuscat), 2.5 ml/pot, assessed 7 to 10 days after inoculation
[1] = tested on: Colletotrichum orbiculare; assay: Test Example H: Anthracnose on cucumber; conditions: for Test H control value: 6 to 10 days after inoculation; for Test H control value class: Anthracnose on cucumber (Sagami Hanjiro), 2.5 ml/pot, assessed 6 to 10 days after inoculation
[2] = tested on: Blumeria graminis f. sp. hordei; assay: Test Example D: Powdery mildew on barley; conditions: for Test D control value class: class of control value
[3] = 250 ppm drug solution sprayed on test plant
[4] = 250 ppm drug solution sprayed (2.5 ml/pot), grape Neomuscat
[5] = 250 ppm drug solution sprayed (2.5 ml/pot), cucumber Sagami Hanjiro
[6] = Alternaria sooty spot on cabbage, class of control value
[7] = Brown rust on wheat, class of control value
[8] = Blast on rice, control value class
[9] = Alternaria sooty spot on cabbage, control value class
[10] = Brown rust on wheat, control value class
[11] = Late blight on tomato, control value class
[12] = Gray mold on tomato, control value class
[13] = Downy mildew on vine, 250 ppm spray
[14] = Anthracnose on cucumber, 250 ppm spray
[15] = Powdery mildew on barley, control value class

Row | Structure (SMILES) | Test A control value (Magnaporthe grisea; [3]) | Test C control value (Alternaia brassicicola; [3]) | Test E control value (Puccinia recondita; [3]) | Test F control value (Phytophthora infestans; [3]) | Test B control value (Botrytis cinerea; [3]) | Test G control value (Plasmopara viticola; [4]) | Test H control value [1, 5] | Test D control value [2, 3] | Test A control value class (Magnaporthe grisea; Blast on rice) | Test C control value class (Alternaia brassicicola; [6]) | Test E control value class (Puccinia recondita; [7]) | Test F control value class (Phytophthora infestans; Late blight on tomato) | Test B control value class (Botrytis cinerea; Gray mold on tomato) | Test G control value class (Plasmopara viticola; 250 ppm spray) | Test H control value class ([1]; 250 ppm spray) | Test D control value class ([2]; Powdery mildew on barley) | Test A control value (Magnaporthe grisea; [8]) | Test C control value (Alternaia brassicicola; [9]) | Test E control value (Puccinia recondita; [10]) | Test F control value (Phytophthora infestans; [11]) | further results
1 | CCC(OC)c1cc(Cl)c(=O)n(C)c1-c1c(F)cc(OC)cc1F (centres unmarked) [compound 506] | H (more than 50% control value) | H (more than 50% control value) | H (more than 50% control value) | L (50% or less control value) | H (more than 50% control value) | H (more than 50% control value) | H (more than 50% control value) | H (more than 50% control value) |  |  |  |  |  |  |  |  |  |  |  |  | 
2 | CCCc1cc(I)c(=O)n(CC)c1-c1c(F)cc(OC)cc1F [compound 436] | H (more than 50% control value) | H (more than 50% control value) | H (more than 50% control value) | L (50% or less control value) | H (more than 50% control value) | L (50% or less control value) | H (more than 50% control value) | H (more than 50% control value) |  |  |  |  |  |  |  |  |  |  |  |  | 
3 | CCn1c(-c2c(F)cc(OC)cc2F)c(C(C)(C)C)cc(Cl)c1=O [compound 74] |  |  |  |  |  |  |  |  | H (more than 50% control value) | H (more than 50% control value) | H (more than 50% control value) | L (50% or less control value) | H (more than 50% control value) | H (more than 50% control value) | H (more than 50% control value) | L (50% or less control value) |  |  |  |  | 
4 | CCn1c(-c2ccc(F)cc2Cl)c(C)cc(Cl)c1=O [compound 280] |  |  |  |  |  |  |  |  |  |  |  |  |  |  |  |  | L (50% or less control value) | L (50% or less control value) | H (more than 50% control value) | L (50% or less control value) | Test B control value (Botrytis cinerea; [12]): H (more than 50% control value); Test G control value (Plasmopara viticola; [13]): L (50% or less control value); Test H control value [1, 14]: H (more than 50% control value); Test D control value [2, 15]: H (more than 50% control value)
5 | CCCCCCCCc1cc(Br)c(=O)n(CC)c1-c1ccc(F)cc1Cl [compound 272] |  |  |  |  |  |  |  |  |  |  |  |  |  |  |  |  | L (50% or less control value) | L (50% or less control value) | H (more than 50% control value) | L (50% or less control value) | Test B control value (Botrytis cinerea; [12]): L (50% or less control value); Test G control value (Plasmopara viticola; [13]): L (50% or less control value); Test H control value [1, 14]: L (50% or less control value); Test D control value [2, 15]: L (50% or less control value)
6 | CCCc1cc(Br)c(=O)n(CC)c1-c1c(F)cccc1F [compound 429] | H (more than 50% control value) | H (more than 50% control value) | H (more than 50% control value) | L (50% or less control value) | H (more than 50% control value) | H (more than 50% control value) | H (more than 50% control value) | H (more than 50% control value) |  |  |  |  |  |  |  |  |  |  |  |  | 
7 | CCn1c(-c2c(F)cc(F)cc2F)c(C(C)(CC)OC)cc(Cl)c1=O (centres unmarked) [compound 54] |  |  |  |  |  |  |  |  | H (more than 50% control value) | H (more than 50% control value) | H (more than 50% control value) | L (50% or less control value) | H (more than 50% control value) | L (50% or less control value) | H (more than 50% control value) | H (more than 50% control value) |  |  |  |  | 
8 | CCn1c(-c2ccc(F)cc2)c(CC(C)C)ccc1=O [compound 144] |  |  |  |  |  |  |  |  | L (50% or less control value) | H (more than 50% control value) | H (more than 50% control value) | L (50% or less control value) | L (50% or less control value) | H (more than 50% control value) | L (50% or less control value) | H (more than 50% control value) |  |  |  |  | 
9 | CC(C)Cc1ccc(=O)n(C)c1-c1ccc(F)cc1 [compound 145] |  |  |  |  |  |  |  |  | L (50% or less control value) | H (more than 50% control value) | H (more than 50% control value) | L (50% or less control value) | L (50% or less control value) | L (50% or less control value) | L (50% or less control value) | L (50% or less control value) |  |  |  |  | 
10 | CCCc1ccc(=O)n(C)c1-c1ccc(OC)cc1Cl [compound 334] |  |  |  |  |  |  |  |  |  |  |  |  |  |  |  |  | L (50% or less control value) | L (50% or less control value) | H (more than 50% control value) | L (50% or less control value) | Test B control value (Botrytis cinerea; [12]): H (more than 50% control value); Test G control value (Plasmopara viticola; [13]): L (50% or less control value); Test H control value [1, 14]: L (50% or less control value); Test D control value [2, 15]: H (more than 50% control value)
11 | CCCc1ccc(=O)n(CC)c1-c1ccc(OC)cc1C [compound 411] | L (50% or less control value) | L (50% or less control value) | H (more than 50% control value) | L (50% or less control value) | H (more than 50% control value) | L (50% or less control value) | L (50% or less control value) | H (more than 50% control value) |  |  |  |  |  |  |  |  |  |  |  |  | 
12 | CCn1c(-c2ccc(OC)cc2)c(C(=O)C(C)C)cc(Cl)c1=O [compound 222] |  |  |  |  |  |  |  |  |  |  |  |  |  |  |  |  | L (50% or less control value) | H (more than 50% control value) | H (more than 50% control value) | L (50% or less control value) | Test B control value (Botrytis cinerea; [12]): H (more than 50% control value); Test G control value (Plasmopara viticola; [13]): L (50% or less control value); Test H control value [1, 14]: L (50% or less control value); Test D control value [2, 15]: H (more than 50% control value)
13 | CCn1c(-c2ccc(F)cc2Cl)c(CC(C)C)cc(Cl)c1=O [Compound No. 99, 3-chloro-6-(2-chloro-4-fluorophenyl)-1-ethyl-5-isobutylpyridin-2(1H)-one] |  |  |  |  |  |  |  |  |  |  |  |  |  |  |  |  |  |  |  |  | pest or weed control at 250 µg/mL (Magnaporthe grisea; Pyricularia oryzae, in Oryza sativa, read-out: Test A control value class): > 50%; pest or weed control at 250 µg/mL (Alternaia brassicicola; Brassica oleracea, topical, Alternaria sooty spot on cabbage, class of control value, read-out: Test C control value class): > 50%; pest or weed control at 250 µg/mL (Puccinia recondita; Puccinia recondita, topical, Brown rust on wheat, class of control value, read-out: Test E control value class): > 50%; pest or weed control at 250 µg/mL (Phytophthora infestans; Phytophthora infestans, in Solanum lycopersicum, topical, read-out: Test F control value class): > 50%; pest or weed control at 250 µg/mL (Botrytis cinerea; Botrytis cinerea, in Solanum lycopersicum, topical, read-out: Test B control value class): > 50%; pest or weed control at 250 ppm (Plasmopara viticola; Plasmopara viticola, topical, read-out: Test G control value class): > 50%; pest or weed control at 250 ppm ([1]; Colletotrichum orbiculare, in Cucumis sativus, topical, read-out: Test H control value class): > 50%; pest or weed control at 250 µg/mL ([2]; Blumeria graminis, in Hordeum vulgare, topical, read-out: Test D control value class): > 50%
